In brackets after ≈: the same amount, converted by molar mass. One block for each compound: values may come before it.
Columns and labels:
[1] = AUC in CD1 mouse at 10 mg/kg, iv administered as single dose by UPLC analysis; assay type: ADME, organism-based; parameters: dose 10 mg/kg, route iv; details: in vivo
[2] = Half life in CD1 mouse at 3 mg/kg, iv; assay type: ADME, organism-based; details: in vivo
[3] = Cmax in CD1 mouse at 0.5 mg/kg, iv; assay type: ADME, organism-based; parameters: dose 0.5 mg/kg, route iv; details: in vivo
[4] = Volume of distribution in CD-1 mouse at 10 mg/kg iv measured by UPLC-MS/MS method; assay type: ADME, organism-based; details: in vivo
[5] = Clearance in CD-1 mouse at 10 mg/kg iv measured by UPLC-MS/MS method; assay type: ADME, organism-based; details: in vivo
[6] = AUC (0 to infinity) in CD1 mouse at 10 mg/kg, iv administered as single dose by UPLC analysis; assay type: ADME, organism-based; parameters: dose 10 mg/kg, route iv; details: in vivo
[7] = target: Carbonic anhydrase 9 (Homo sapiens, UniProt Q16790); assay: Binding affinity to human CA9 assessed as inhibition constant
[8] = test system: Plasmodium falciparum; assay: Antiplasmodial activity against chloroquine-resistant Plasmodium falciparum Dd2 in HepG2 cells; assay type: functional, organism-based
[9] = Aqueous solubility of the compound at pH 5.0; assay type: physicochemical; details: buffer
[10] = Lipophilicity, logP of the compound; assay type: physicochemical; details: octanol/water
[11] = test system: HepG2; assay: Antiproliferative activity against human HepG2 cells assessed as reduction in cell viability after 24 hrs by MTT assay; assay type: functional, cell-based; details: HepG2, 24 h
[12] = Aqueous solubility of the compound at pH 6.2; assay type: physicochemical; details: buffer
[13] = Antioxidant activity assessed as DPPH free radical scavenging activity at 500 microg/ml; assay type: functional
[14] = test system: HT-29; assay: Anticancer activity against human HT-29 cells assessed as inhibition of cell proliferation measured after 48 hrs by MTT assay; assay type: functional, cell-based; details: HT-29, 48 h
[15] = test system: MCF7; assay: Anticancer activity against human MCF7 cells assessed as inhibition of cell proliferation measured after 48 hrs by MTT assay; assay type: functional, cell-based; details: MCF7, 48 h
[16] = test system: A2780; assay: Anticancer activity against human A2780 cells assessed as inhibition of cell proliferation measured after 48 hrs by MTT assay; assay type: functional, cell-based; details: A2780, 48 h
[17] = Antioxidant activity assessed as DPPH radical scavenging activity at 100 uM/ml; assay type: functional
[18] = Antioxidant activity assessed as H2O2 radical scavenging activity; assay type: functional
[19] = test system: Erythrocyte; assay: Anti-inflammatory activity in human red blood cells assessed as protection of cell membrane at 100 ug/mL relative to control; assay type: functional; details: dose 100 µg/ml
[20] = target: Acetyl-CoA carboxylase 1 (Rattus norvegicus) (UniProt P11497); assay: In vivo inhibition of ACC1 in Sprague-Dawley rat assessed as reduction in malonyl-CoA in liver at […] relative to control; assay type: functional
[21] = In vivo inhibition of ACC2 in Sprague-Dawley rat assessed as reduction in malonyl-CoA in quadriceps; assay type: functional
[22] = In vivo inhibition of ACC2 in Sprague-Dawley rat assessed as reduction in malonyl-CoA in quadriceps at […] relative to control; assay type: functional
[23] = target: Acetyl-CoA carboxylase 1 (Rattus norvegicus) (UniProt P11497); assay: In vivo inhibition of ACC1 in Sprague-Dawley rat assessed as reduction in malonyl-CoA in liver; assay type: functional

SMILES: CCCOc1ccc2c(c1)C(=O)CC1(CCN(c3ccc(S(N)(=O)=O)cc3[N+](=O)[O-])CC1)O2
Ki [7]: 1.24 µM

SMILES: OC(CN1CCC2(CC1)CC(O)c1ccc3ccccc3c1O2)c1ccc(F)c(F)c1 (stereo unspecified)
EC50 [8]: 0.35 µM
solubility [9]: > 42 µg/mL
logP [10]: 3.85
EC50 [11]: 19 µM
solubility [12]: > 42 µg/mL

SMILES: CC(C)Oc1ccc2c(c1)C(=O)CC1(CCN(c3ccc(S(N)(=O)=O)cc3[N+](=O)[O-])CC1)O2
Ki [7]: 3.3 µM

SMILES: CC(C)Oc1ccc2c(c1)OC1(CCN(c3ccc(S(N)(=O)=O)cc3[N+](=O)[O-])CC1)CC2=O
Ki [7]: 0.0346 µM

SMILES: COc1ccc2c(c1)C(=O)CC1(CCN(c3ccc(S(N)(=O)=O)cc3[N+](=O)[O-])CC1)O2
Ki [7]: 1.56 µM

SMILES: Cc1ccc(S(=O)(=O)N2CCC3(CC2)CC(=O)c2ccccc2O3)cc1
IC50 [14]: 16 µM
IC50 [15]: 6.78 µM
IC50 [16]: 1.79 µM

SMILES: COCCOc1ccc2c(c1)OC1(CCN(c3ccc(S(N)(=O)=O)cc3[N+](=O)[O-])CC1)CC2=O
Ki [7]: 0.0454 µM

SMILES: CC(=O)Oc1ccc2c(c1)C(=O)CC1(CCN(c3ccc(S(N)(=O)=O)cc3[N+](=O)[O-])CC1)O2
Ki [7]: 4.08 µM

SMILES: NS(=O)(=O)c1ccc(N2CCC3(CC2)CC(=O)c2cc(Br)ccc2O3)c([N+](=O)[O-])c1
Ki [7]: 0.199 µM

SMILES: CCOc1ccc2c(c1)C(=O)CC1(CCN(c3ccc(S(N)(=O)=O)cc3[N+](=O)[O-])CC1)O2
Ki [7]: 2.84 µM

SMILES: COc1ccc2c(c1)OC1(CCN(c3ccc(S(N)(=O)=O)cc3[N+](=O)[O-])CC1)CC2=O
Ki [7]: 2.75 µM

SMILES: COc1cc(C(=O)N2CCC3(CC2)CC(=O)c2ccccc2O3)cc(OC)c1OC
IC50 [14]: 23.2 µM
IC50 [15]: 47.1 µM
IC50 [16]: 18.8 µM

SMILES: Cc1c(C(=O)c2ccc(-c3ccccc3)cc2)oc2cc3c(cc12)C(=O)CC1(CCN(CC(=O)OC(C)(C)C)CC1)O3
IC50 [17]: 63.92 µg/mL
IC50 [18]: 44.73 µg/mL (≈ 79.1 µM)

SMILES: CC(=O)N1CCC2(CC1)CC(=O)c1cc3c(cc1O2)CCC(C)(C)O3
Activity [19]: 23.07%
IC50 ([17]; read-out: IC50): 5.32 µM

SMILES: NS(=O)(=O)c1ccc(N2CCC3(CC2)CC(=O)c2ccccc2O3)c([N+](=O)[O-])c1
Ki [7]: 0.229 µM

SMILES: NS(=O)(=O)c1ccc(N2CCC3(CC2)CC(=O)c2ccc(Br)cc2O3)c([N+](=O)[O-])c1
Ki [7]: 1.47 µM

SMILES: Cc1ccc2c(c1)C(=O)CC1(CCN(c3ccc(S(N)(=O)=O)cc3[N+](=O)[O-])CC1)O2
Ki [7]: 3.55 µM

SMILES: CC(C)(C)n1cc2c(n1)C(=O)CC1(CCN(C(=O)c3ccc4[nH]ncc4c3)CC1)O2
inhibition [20]: 75%
ED50 [21]: 2.6 mg/kg
inhibition (INH) [22]: 78%
ED50 [23]: 1.6 mg/kg

SMILES: CCOc1ccc2c(c1)OC1(CCN(c3ccc(S(N)(=O)=O)cc3[N+](=O)[O-])CC1)CC2=O
Ki [7]: 2.65 µM

SMILES: COCCOc1ccc2c(c1)C(=O)CC1(CCN(c3ccc(S(N)(=O)=O)cc3[N+](=O)[O-])CC1)O2
Ki [7]: 4.34 µM

SMILES: CCCOc1ccc2c(c1)OC1(CCN(c3ccc(S(N)(=O)=O)cc3[N+](=O)[O-])CC1)CC2=O
Ki [7]: 4.15 µM

Further lines, with some results ahead:

AUC [1]: 1600 ng·h/mL
half-life [2]: 9.1 h
Cmax [3]: 2490 nM
Vd [4]: 8.6 L/kg
CL ([5]; mouse, iv, 10 mg/kg): 79.8 mL/min/kg
AUC ([6]; mouse): 1042 ng·h/mL
SMILES: O=C(/C=C/c1ccc2c(c1)C(=O)CC1(CCN(CCc3ccccc3)CC1)O2)NO

Ki [7]: 0.0465 µM
SMILES: NS(=O)(=O)c1ccc(N2CCC3(CC2)CC(=O)c2ccc(OCCO)cc2O3)c([N+](=O)[O-])c1

IC50 [13]: 48.5 µM
SMILES: CCOC(=O)N1CCC2(CC1)CC(=O)c1cc(C(=O)/C=C3\C(=O)Nc4ccc(Br)cc43)c(O)cc1O2

IC50 [13]: 47.7 µM
SMILES: CC(=O)N1CCC2(CC1)CC(=O)c1cc(C(=O)/C=C3\C(=O)Nc4ccccc43)c(O)cc1O2

AUC [1]: 1240 ng·h/mL
half-life [2]: 13 h
Cmax [3]: 1830 nM
Vd [4]: 5.9 L/kg
clearance ([5]; CD-1, mouse): 55.8 mL/min/kg
AUC(0-inf) ([6]; CD1, mouse): 1490 ng·h/mL
SMILES: O=C(/C=C/c1ccc2c(c1)C(=O)CC1(CCN(Cc3ccc(F)cc3)CC1)O2)NO

Ki [7]: 4.41 µM
SMILES: NS(=O)(=O)c1ccc(N2CCC3(CC2)CC(=O)c2ccc(O)cc2O3)c([N+](=O)[O-])c1

IC50 [13]: 56.3 µM
SMILES: CC(C)(C)OCC(=O)CN1CCC2(CC1)CC(=O)c1cc(C(=O)/C=C3\C(=O)Nc4ccc(Br)cc43)c(O)cc1O2

IC50 [13]: 8.12 µM
SMILES: O=C1Nc2ccccc2/C1=C/C(=O)c1cc2c(cc1O)OC1(CCN(Cc3ccccc3)CC1)CC2=O

IC50 ([17]; read-out: IC50): 6.59 µM
SMILES: CN1CCC2(CC1)CC(=O)c1c(ccc3c1CCC(C)(C)O3)O2
Activity [19]: 64.72%

IC50 [14]: 8.46 µM
IC50 [15]: 23.9 µM
IC50 [16]: 22.7 µM
SMILES: O=C1CC2(CCN(C(=O)C34CC5CC(CC(C5)C3)C4)CC2)Oc2ccccc21

IC50 [13]: 12.7 µM
SMILES: O=C1Nc2ccc(Br)cc2/C1=C/C(=O)c1cc2c(cc1O)OC1(CCN(Cc3ccccc3)CC1)CC2=O

IC50 [13]: 8.64 µM
IC50 ([17]; read-out: IC50): 8.64 µM
SMILES: O=C1O[C@H]([C@@H](O)CO)C(O)=C1O [ASCORBIC ACID]

IC50 [13]: 6.85 µM
SMILES: CC(C)(C)OCC(=O)CN1CCC2(CC1)CC(=O)c1cc(C(=O)/C=C3\C(=O)Nc4ccccc43)c(O)cc1O2

IC50 ([17]; read-out: IC50): 6.59 µM
SMILES: CC(=O)N1CCC2(CC1)CC(=O)c1c(ccc3c1CCC(C)(C)O3)O2
Activity [19]: 56.1%

IC50 [13]: 1.74 µM
SMILES: CCOC(=O)N1CCC2(CC1)CC(=O)c1cc(C(=O)/C=C3\C(=O)Nc4ccccc43)c(O)cc1O2

Ki [7]: 3.75 µM
SMILES: NS(=O)(=O)c1ccc(N2CCC3(CC2)CC(=O)c2cc(OCCO)ccc2O3)c([N+](=O)[O-])c1

IC50 [13]: 58.6 µM
SMILES: CC(=O)N1CCC2(CC1)CC(=O)c1cc(C(=O)/C=C3\C(=O)Nc4ccc(Br)cc43)c(O)cc1O2

Source: ChEMBL document CHEMBL5244267, “A brief overview on recent advances in spiro[chromane-2,4'-piperidine]-4(3H)-one-functionalized compounds in medicinal chemistry research” (Bioorg Med Chem, 2020)
